This note sets out measurements from patent US8895569B2, “Carbocyclic nucleosides and their pharmaceutical use and compositions” (Cellceutix Corporation, priority 2012, dated 2014).

One series relates to IL-20. Put plainly: IL-20 in tissue measured by ELISA, psoriatic xenograft SCID mice. Format: in vivo, SCID mice bearing human psoriatic tissue. The following applies: for IL-20: ELISA, control 178; for reduction of IL-20 concentration in tissue: versus control. Here is the method:
(§1) In order to examine efficacy of the (−) cis-[4-[2-amino-6-(cyclopropylamino)-9H-purin-9-yl]-2-cyclopentene-1-hydroxymethyl acetate in mice, male and female SCID mice (24 to 28 gms) 6 to 8 weeks old were purchased from Charles River Laboratory (Wilmington, Mass.). The animals were kept in standard rodent cages with isolator tops at 18-26° C., and a relative humidity of 30-70% on a 12 hour light/12 hour dark cycle. Mice were given rodent chow and water ad libitum. […] Suitable animals were selected for the assigned study.
(§2) Mice were subjected to total body irradiation to mildly suppress immune system at 120 rads per animal in a Gamma Cell Radiator. Mice were identified by ear punching.
(§3) 24 Hours after the TBI, a 5 mm×5 mm cut of the human psoriatic tissue was transplanted on the skin of the mice, under ketamine/xylazine anesthesia. The tissues were adherent by using a skin cement. All animals survived the anesthesia and the surgery for the experiment. The complete fusion of the tissues was achieved by day 27. During treatments, mice were observed daily for any adverse affects. Mice body weights were taken prior to treatment and every other day during the post treatment. If an animal became unwell, any treatment of that animal was suspended. If there was no recovery, the animal was sacrificed. […] Mice transplant area size measurements were taken prior to treatment and every other day during and post treatment. The same scientist was responsible for taking the measurements throughout the study.
(§4) Groups of 5 male mice and 5 female mice bearing psoriatic tissues were treated with either (−) cis-[4-[2-amino-6-(cyclopropylamino)-9H-purin-9-yl]-2-cyclopentene-1-hydroxymethyl acetate (Prurisol) alone or methotrexate (MTX) according to the schedule below. Another group of mice remained untreated to serve as controls.
IL-20 was also measured using ELISA technique and data is also shown below.
(ELISA stands for enzyme-linked immunosorbent assay.)

Series [1] has as its system Psoriasis susceptibility related RNA Gene Induced by Stress (PRINS). Put plainly: PRINS expression in human psoriatic tissue transplants on SCID mice. Format: in vivo, SCID mice bearing human psoriatic tissue. The following applies: for PRINS: control 49. The procedure:
as §1, §2, §3, §4
(§5) Prurisol was administered orally (PO) to the mice, along with the topical application at 8 hour intervals on the effected area. […] In psoriasis, anti-apoptotic protein G1P3 is over expressed, which is regulated by the non-coding RNA. Psoriasis susceptibility related RNA Gene Induced by Stress (PRINS) was examined in control animal's transplants and treated ones (the expression in psoriatic plaques will be 10 times higher), and results from these studies are shown below.

A further series has as its system human psoriatic tissue. Put plainly: Recovery from psoriasis in SCID mice implanted with human psoriatic tissue. The series is classed as in vivo. The conditions noted are these: 10 mg, one time per day or BID. The procedure:
as §1, §2
24 Hours after the TBI, a 5 mm×5 mm cut of the human psoriatic tissue was transplanted on the skin of the mice, under ketamine/xylazine anesthesia. The tissues were adherent by using a skin cement. All animals survived the anesthesia and the surgery for the experiment. The complete fusion of the tissues was achieved by day 27. During treatments, mice were observed daily for any adverse affects. Mice body weights were taken prior to treatment and every other day during the post treatment. If an animal became unwell, any treatment of that animal was suspended. If there was no recovery, the animal was sacrificed. […]

Series [2] in a line: Weight changes of treated mice. Format: in vivo, SCID mice. Here is the method:
as §3, §5

The nature of a further series: Storage stability. The series is classed as physicochemical. The conditions noted are these: stored at ambient temperature, protected from light.
A short description of series [3]: Oral bioavailability and disposition of Prurisol. The following applies: in vivo.
Where [4] appears, read: Prurisol 10 mg/kg, MTX 7.5 mg/kg.

`CN(Cc1cnc2nc(N)nc(N)c2n1)c1ccc(C(=O)N[C@@H](CCC(=O)O)C(=O)O)cc1` [MTX, methotrexate, reference compound]: the IL-20 with IL-20 (setting [4]) is given as 127. In the series on IL-20, the “reduction of IL-20 concentration in tissue” value is reported as 1.4 fold. For the same molecule, in series [1] (setting [4]), the PRINS stood at 28.
Broadly, the bioavailability is dose-corrected exposure relative to a reference, in per cent. As for `Nc1nc(NC2CC2)c2ncn([C@H]3C=C[C@@H](COC(=O)CO)C3)c2n1` [Prurisol], the results for the IL-20 in the series on IL-20 (setting [4]) and in the series on IL-20 (Prurisol × 2 (2×10 mg/kg)) were 54 and 18, respectively. The “reduction of IL-20 concentration in tissue” value with IL-20 is on record as 3 fold. The “recovery from psoriasis (skin appearance, FIG. 6)” value in the series with human psoriatic tissue is given as “recovered from psoriasis”. For the same molecule, the figures for the PRINS in series [1] (setting [4]) and in series [1] (Prurisol × 2 (2×10 mg/kg)) were 24 and 5, respectively. The “PRINS reduction in comparison to methotrexate” value in series [1] (in vivo) is reported as “reduces PRINS significantly”. In addition, the weight loss result in series [2] (5 mg/kg on days 11 to 35 and 20 mg/kg topically) was “no weight loss”. Also, the “weight loss due to administration” value in series [2] (orally (PO) along with topical application at 8 hour intervals) is given as “within acceptable limits”. Also, the stability entry in “Storage stability” is given as “stable”. In addition, the “crossing the blood brain barrier” value in series [3] is “capable of crossing the blood brain barrier”. Also, the metabolism route result in series [3] is “metabolized primarily through alcohol dehydrogenase or glucuronyl transferase”. Further, the bioavailability in series [3] (oral, read-out: oral bioavailability (% F)) worked out at 83%.
